Patent publication US9018244B2, “Benzopyran compounds, compositions and uses thereof” (Olema Pharmaceuticals, Inc., priority 2011, dated 2015)

Tests used:
[1] = daily oral dose of 40 mg in women; cited from earlier work
[2] = biological target: T1, estrogen receptor alpha (ERα) (Homo sapiens, UniProt P03372); assay: ERα expression by immunoblot after anti-estrogen treatment; assay type: cell-based; conditions: 100 nM anti-estrogen, 22-24 hours, serum-free medium; MCF-7 breast cells and ECC-1 endometrial cells
T1 construct: endogenous in cells
T1 sequence (P03372 1-595): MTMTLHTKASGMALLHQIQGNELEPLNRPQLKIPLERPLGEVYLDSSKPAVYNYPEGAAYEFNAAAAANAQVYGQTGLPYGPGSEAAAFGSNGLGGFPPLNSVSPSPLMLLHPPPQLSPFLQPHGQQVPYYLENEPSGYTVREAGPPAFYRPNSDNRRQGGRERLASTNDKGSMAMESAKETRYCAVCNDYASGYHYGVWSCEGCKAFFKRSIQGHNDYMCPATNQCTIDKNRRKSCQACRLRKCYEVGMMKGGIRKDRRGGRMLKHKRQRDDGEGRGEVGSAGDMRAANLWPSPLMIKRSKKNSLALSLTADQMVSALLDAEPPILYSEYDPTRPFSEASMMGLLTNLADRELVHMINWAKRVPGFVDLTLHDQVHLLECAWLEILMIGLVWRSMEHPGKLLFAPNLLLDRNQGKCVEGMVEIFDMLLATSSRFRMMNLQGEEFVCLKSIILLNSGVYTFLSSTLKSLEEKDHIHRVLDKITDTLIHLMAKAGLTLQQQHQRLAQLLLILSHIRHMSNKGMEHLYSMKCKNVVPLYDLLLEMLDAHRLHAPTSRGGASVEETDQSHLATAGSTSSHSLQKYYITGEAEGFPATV
Description: FIG. 12. […] A) ERα levels in breast cells after treatment with OP-1074 compared to treatment with model anti-estrogens. MCF-7 cells were treated with 100 nM anti-estrogen for 24 hours in serum-free medium and protein extracts immunoblotted with an antibody to ERα (D12, Santa Cruz Biotechnology, Santa Cruz, Calif.). Image is from a single representative experiment and number on top denotes the mean percent ERα expression relative to vehicle from quadruplicate treatments. B) OP-1038 induces degradation of ERα in both MCF-7 breast cells and ECC-1 endometrial cells.
ERα expression was detected in MCF-7 cell lysates treated with 100 nM anti-estrogens in serum-free medium for 22-24 hours and immunoblotted with an antibody specific to ERα as described in the legend to, and depicted in FIG. 12.

[3] = system: E2-stimulated AP activity in ECC-1 cells; assay: Inhibition of E2-stimulated AP activity in ECC-1 cells (antagonist mode); assay type: cell-based, human; conditions: in the presence of 500 pM E2
Description: FIG. 2. Alkaline phosphatase (AP) activity in ECC-1 cells correlates with the uterine wet weight of ovariectomized rats, as reported previously in Scafonas, et al. (*; Scafonas et al. “Agonist-like SERM effects on ER alpha-mediated repression of MMPI promoter activity predict in vivo effects on bone and uterus. J Steroid Biochem Mol. Biol. 2008 110(3-5):197-206) and Labrie, et al. (†; Labrie et al. “The combination of a novel selective estrogen receptor modulator with an estrogen protects the mammary gland and uterus in a rodent model: the future of postmenopausal women's health?” Endocrinology. 2003 144(11):4700-6). ECC-1 cells were treated with 500 pM 17β-estradiol (E2) or 1-5 nM anti-estrogens in hormone-depleted medium for 3 days. Note that the racemic mixture of acolbifene, EM-343, was used in the in vitro AP assay. AP activity was measured by incubating a chromogenic AP substrate, p-nitrophenyl phosphate, at 40° C. for 40 minutes followed by measuring the absorbance at 405 nm. Results were from a single representative experiment and reported as the mean percent induction relative to E2 from triplicate treatments, with error bars representing SEM.
FIG. 6. […] A) Comparison of inhibition of E2-stimulated AP activity of various benzopyran compounds (right) compared to published reference compounds (left). ECC-1 cells were treated with 100 nM anti-estrogens in the presence of 500 pM E2 and AP activity was measured as described in FIG. 2. Note that OP-1038 was statistically different from EM-343 and Gauthier compound Ia (p<0.0001 (exact p values stated in graph), calculated using Student's t-test). Results were from a single representative experiment and reported as the mean percent induction relative to E2 from triplicate treatments, with error bars representing SEM. […] IC50's were calculated using the least squares fit method. *Aragon Compound 28 was statistically different from equivalent dose of OP-1038 (p≦0.01, calculated using Student's t-test). […]
Method for performing the alkaline phosphatase (AP) assay. […] Absorbance was read at 405 nm using a plate spectophotometer. […]

[4] = system: E2-stimulated estrogen response element (ERE)-regulated reporter gene activity; assay: ERE-tk109-Luc reporter gene assay in MCF-7 cells; assay type: cell-based, human; conditions: 100 pM E2, 18-22 hours
Description: (§1) FIG. 10. […] A) OP-1074 had similar potency to model anti-estrogens in the ERE reporter gene assay. MCF-7 cells were transiently transfected with ERE-tk109-Luc and treated with anti-estrogens in hormone-depleted medium in the presence of 100 pM E2 for 22 hours. Results were from a single representative experiment and reported as the mean percent induction relative to E2 from triplicate treatments, with error bars representing SEM. […] Results were from a single representative experiment and reported as the mean percent induction relative to E2 from triplicate treatments, with error bars representing SEM. IC50's were calculated using the least squares fit method.
Compounds of invention are tested for their inhibitory activity of estrogen according to the assay methods described in Hodges-Gallagher, L., Valentine, C. V., El Bader, S. and Kushner, P. J. (2007) “Histone Deacetylase Inhibitors Enhance the Efficacy of Hormonal Therapy Agents on Breast Cancer Cells and Blocks Anti-estrogen-Driven Uterine Cell Proliferation” Breast Cancer Res Treat, November; 105(3):297-309. Specifically, an estrogen-responsive reporter gene (ERE-tk109-Luc) was transiently transfected into MCF-7 cells and treated with anti-estrogens in triplicate in the presence of 100 pM 17β-estradiol (E2) for 18-22 hours. Luciferase activity was normalized to activity of E2 alone and IC50's were calculated using the least squares fit method. This method is also described in legend for FIG. 10.

[5] = system: human MCF-7 breast cancer cells; assay: E2-stimulated proliferation of MCF-7 breast cancer cells; assay type: cell-based; conditions: MCF-7 cells, 100 pM E2, 6-8 days
Description: as §1, with “11.” for “10.”, “inhibiting E2-stimulated proliferation of breast cells in vitro.” for “the ERE reporter gene assay.”, “were” for “were transiently transfected with ERE-tk109-Luc and”, “medium for 6-8 days” for “medium”, “E2. Proliferation was measured using Cyquant fluorescent DNA-binding dye (Invitrogen, Grand Island, N.Y.).” for “E2 for 22 hours.”
Proliferation in MCF-7 was measured using a fluorescent DNA binding dye 6-8 days after treatment in triplicate with anti-estrogens in the presence of 100 pM E2 and as described in the legend to, and depicted in FIG. 11.

[6] = system: rodent uterus, human uterine cells; conditions: cited from earlier work

CC1=C(c2ccc(OC(=O)C(C)(C)C)cc2)[C@H](c2ccc(OCCN3CCCCC3)cc2)Oc2cc(OC(=O)C(C)(C)C)ccc21 [EM800]
Mean drug exposure of circulating acolbifene [1]: 15 ng/mL

CC1=C(c2ccc(O)cc2)[C@H](c2ccc(OCCN3CCCCC3)cc2)Oc2cc(O)ccc21 [EM-652, (S)-3-(4-hydroxyphenyl)-4-methyl-2-(4-(2-(piperidin-1-yl)ethoxy)phenyl)-2H-chromen-7-ol]
Mean drug exposure of circulating acolbifene [1]: 8.3 ng/mL

CC1=C(c2ccc(O)cc2)[C@@H](c2ccc(OCCN3CC[C@@H](C)C3)cc2)Oc2cc(O)ccc21 [OP-1075, (2R)-3-(4-hydroxyphenyl)-4-methyl-2-(4-{2-[(3R)-3-methylpyrrolidin-1-yl]ethoxy}phenyl)-2H-chromen-7-ol]
Degradation of ERα [2]: degrade the receptor | Inhibition of E2-stimulated AP activity [3]: reduced activity | Antagonism of E2-stimulated ERE-regulated reporter gene activity [4]: reduced activity | Antagonism of E2-stimulated proliferation [5]: reduced activity

CC12CCC3c4ccc(O)cc4CC(CCCCCCCCC[S+]([O-])CCCC(F)(F)C(F)(F)F)C3C1CCC2O (stereo not shown) [fulvestrant]
Residual estrogen-like action relative to estradiol [6]: almost unmeasurable
